# Experimental data: PubChem BioAssay (NCI)
#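 Here, GI50 denotes the concentration required for 50% inhibition of growth. At the TGI there is no net growth.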
# Assays:
# Experiment in all cases: inhibition of tumour cell growth, NCI panel, 384-well format
# HL-60(TB) leukemia = test system: HL-60(TB) leukemia
# SF-295 CNS = test system: SF-295 CNS
# SF-268 CNS = test system: SF-268 CNS
# EKVX NSCLC = test system: EKVX NSCLC
# MDA-MB-231 breast = test system: MDA-MB-231 breast
# PC-3 prostate = test system: PC-3 prostate
# HOP-92 NSCLC = test system: HOP-92 NSCLC
# MOLT-4 leukemia = test system: MOLT-4 leukemia
# M14 melanoma = test system: M14 melanoma
# 786-0 renal = test system: 786-0 renal
# OVCAR-4 ovarian = test system: OVCAR-4 ovarian
# HOP-62 NSCLC = test system: HOP-62 NSCLC
# A549 NSCLC = test system: A549 NSCLC
# U251 glioblastoma = test system: U251 glioblastoma
# SF-539 CNS = test system: SF-539 CNS
# NCI-H226 lung = test system: NCI-H226 lung
# HCC-2998 colon = test system: HCC-2998 colon
# HT29 colon = test system: HT29 colon
# SK-OV-3 ovarian = test system: SK-OV-3 ovarian
# A498 renal = test system: A498 renal
# OVCAR-5 ovarian = test system: OVCAR-5 ovarian
# NCI/ADR-RES ovarian = test system: NCI/ADR-RES ovarian
# MCF7 breast = test system: MCF7 breast
# MALME-3M melanoma = test system: MALME-3M melanoma
# ACHN renal = test system: ACHN renal
# NCI-H322M lung = test system: NCI-H322M lung
# OVCAR-3 ovarian = test system: OVCAR-3 ovarian
# SNB-75 CNS = test system: SNB-75 CNS
# RPMI-8226 leukemia = test system: RPMI-8226 leukemia
# DU-145 prostate = test system: DU-145 prostate
# SN12C renal = test system: SN12C renal
# MDA-MB-468 breast = test system: MDA-MB-468 breast
# HS 578T breast = test system: HS 578T breast
# SK-MEL-5 melanoma = test system: SK-MEL-5 melanoma
# CAKI-1 renal = test system: CAKI-1 renal
# HCT-15 colon = test system: HCT-15 colon
# OVCAR-8 ovarian = test system: OVCAR-8 ovarian
# SK-MEL-2 melanoma = test system: SK-MEL-2 melanoma
# UACC-62 melanoma = test system: UACC-62 melanoma
# NCI-H522 lung = test system: NCI-H522 lung
# SNB-19 CNS = test system: SNB-19 CNS
# SR leukemia = test system: SR leukemia
# KM12 colon = test system: KM12 colon
# NCI-H460 NSCLC = test system: NCI-H460 NSCLC
# NCI-H23 lung = test system: NCI-H23 lung
# CCRF-CEM leukemia = test system: CCRF-CEM leukemia
# SK-MEL-28 melanoma = test system: SK-MEL-28 melanoma
# TK-10 renal = test system: TK-10 renal
# MDA-MB-435 melanoma = test system: MDA-MB-435 melanoma
# T-47D breast = test system: T-47D breast
# UACC-257 melanoma = test system: UACC-257 melanoma
# BT-549 breast = test system: BT-549 breast
# IGROV1 ovarian = test system: IGROV1 ovarian
# SW-620 colon = test system: SW-620 colon
# RXF 393 renal = test system: RXF 393 renal
# COLO 205 colon = test system: COLO 205 colon
structure (smiles),measurement,setting,value
CCc1ccc(/C=C2/SC(=S)NC2=O)cc1,GI50,HL-60(TB) leukemia,20.3 µM
same,TGI,HL-60(TB) leukemia,34.9 µM
same,GI50,SF-295 CNS,33.7 µM
same,TGI,SF-295 CNS,> 100 µM
same,GI50,SF-268 CNS,19.3 µM
same,TGI,SF-268 CNS,45.8 µM
same,GI50,EKVX NSCLC,20.8 µM
same,TGI,EKVX NSCLC,49.5 µM
same,GI50,MDA-MB-231 breast,20.7 µM
same,TGI,MDA-MB-231 breast,49.5 µM
same,GI50,PC-3 prostate,23.4 µM
same,TGI,PC-3 prostate,49.8 µM
same,GI50,HOP-92 NSCLC,18.1 µM
same,TGI,HOP-92 NSCLC,37.9 µM
same,GI50,MOLT-4 leukemia,16.9 µM
same,TGI,MOLT-4 leukemia,30.6 µM
same,GI50,M14 melanoma,19.6 µM
same,TGI,M14 melanoma,39.6 µM
same,GI50,786-0 renal,28.6 µM
same,TGI,786-0 renal,88 µM
same,GI50,OVCAR-4 ovarian,13.6 µM
same,TGI,OVCAR-4 ovarian,46.9 µM
same,GI50,HOP-62 NSCLC,22.1 µM
same,TGI,HOP-62 NSCLC,42.9 µM
same,GI50,A549 NSCLC,19.8 µM
same,TGI,A549 NSCLC,46.2 µM
same,GI50,U251 glioblastoma,17.3 µM
same,TGI,U251 glioblastoma,33.1 µM
same,GI50,SF-539 CNS,15.9 µM
same,TGI,SF-539 CNS,30.8 µM
same,GI50,NCI-H226 lung,16.7 µM
same,TGI,NCI-H226 lung,36.5 µM
same,GI50,HCC-2998 colon,21.6 µM
same,TGI,HCC-2998 colon,43.6 µM
same,GI50,HT29 colon,24.9 µM
same,TGI,HT29 colon,57.2 µM
same,GI50,SK-OV-3 ovarian,18.5 µM
same,TGI,SK-OV-3 ovarian,43.2 µM
same,GI50,A498 renal,16.7 µM
same,TGI,A498 renal,33.1 µM
same,GI50,OVCAR-5 ovarian,17.5 µM
same,TGI,OVCAR-5 ovarian,43.5 µM
same,GI50,NCI/ADR-RES ovarian,21 µM
same,TGI,NCI/ADR-RES ovarian,45 µM
same,GI50,MCF7 breast,26.2 µM
same,TGI,MCF7 breast,68 µM
same,GI50,MALME-3M melanoma,15.9 µM
same,TGI,MALME-3M melanoma,33.9 µM
same,GI50,ACHN renal,25 µM
same,TGI,ACHN renal,60.5 µM
same,GI50,NCI-H322M lung,22.5 µM
same,TGI,NCI-H322M lung,44.8 µM
same,GI50,OVCAR-3 ovarian,18 µM
same,TGI,OVCAR-3 ovarian,36.5 µM
same,GI50,SNB-75 CNS,21.4 µM
same,TGI,SNB-75 CNS,51.2 µM
same,GI50,RPMI-8226 leukemia,15.6 µM
same,TGI,RPMI-8226 leukemia,29.1 µM
same,GI50,DU-145 prostate,27.7 µM
same,TGI,DU-145 prostate,85.3 µM
same,GI50,SN12C renal,29.1 µM
same,TGI,SN12C renal,95.8 µM
same,GI50,MDA-MB-468 breast,16.3 µM
same,TGI,MDA-MB-468 breast,33.1 µM
same,GI50,HS 578T breast,19.4 µM
same,TGI,HS 578T breast,39.5 µM
same,GI50,SK-MEL-5 melanoma,18.6 µM
same,TGI,SK-MEL-5 melanoma,33.1 µM
same,GI50,CAKI-1 renal,19.3 µM
same,TGI,CAKI-1 renal,47.6 µM
same,GI50,HCT-15 colon,18.5 µM
same,TGI,HCT-15 colon,44 µM
same,GI50,OVCAR-8 ovarian,22.8 µM
same,TGI,OVCAR-8 ovarian,51 µM
same,GI50,SK-MEL-2 melanoma,20.9 µM
same,TGI,SK-MEL-2 melanoma,37.7 µM
same,GI50,UACC-62 melanoma,31.1 µM
same,TGI,UACC-62 melanoma,83.2 µM
same,GI50,NCI-H522 lung,14.7 µM
same,TGI,NCI-H522 lung,36.9 µM
same,GI50,SNB-19 CNS,33.4 µM
same,TGI,SNB-19 CNS,> 100 µM
same,GI50,SR leukemia,12.5 µM
same,TGI,SR leukemia,25.1 µM
same,GI50,KM12 colon,20.7 µM
same,TGI,KM12 colon,44.1 µM
same,GI50,NCI-H460 NSCLC,17.8 µM
same,TGI,NCI-H460 NSCLC,33.3 µM
same,GI50,NCI-H23 lung,15.7 µM
same,TGI,NCI-H23 lung,34.6 µM
same,GI50,CCRF-CEM leukemia,16.5 µM
same,TGI,CCRF-CEM leukemia,30.3 µM
same,GI50,SK-MEL-28 melanoma,24.7 µM
same,TGI,SK-MEL-28 melanoma,55.2 µM
same,GI50,TK-10 renal,26.3 µM
same,TGI,TK-10 renal,74.1 µM
same,GI50,MDA-MB-435 melanoma,21.2 µM
same,TGI,MDA-MB-435 melanoma,44.9 µM
same,GI50,T-47D breast,23.6 µM
same,TGI,T-47D breast,49.4 µM
same,GI50,UACC-257 melanoma,21.3 µM
same,TGI,UACC-257 melanoma,42.1 µM
same,GI50,BT-549 breast,19.7 µM
same,TGI,BT-549 breast,36.1 µM
same,GI50,IGROV1 ovarian,30.5 µM
same,TGI,IGROV1 ovarian,> 100 µM
same,GI50,SW-620 colon,24.5 µM
same,TGI,SW-620 colon,59.6 µM
same,GI50,RXF 393 renal,21.2 µM
same,TGI,RXF 393 renal,42.7 µM
same,GI50,COLO 205 colon,27.1 µM
same,TGI,COLO 205 colon,54.1 µM
